Source: patent publication US9255090B2, “Heterocyclyl derivatives and their use as prostaglandin D2 receptor modulators” (Actelion Pharmaceuticals Ltd., priority 2012, dated 2016)

Biological target: hCRTH2 receptor (Homo sapiens (Human), UniProt Q9Y5Y4)
Test: hCRTH2 receptor membranes radioligand (3H-PGD2) displacement assay
Format: binding
Details: 3H-PGD2 radioligand displacement, HEK293-hCRTH2 membranes
Description: Biological Assays: Preparation of hCRTH2 Receptor Membranes and Radioligand Displacement Assay:
First, recombinant HEK293-hCRTH2 cells were detached from culture plates into 5 ml buffer A/plate (Buffer A: 5 mM Tris, 1 mM MgCl2-6H2O pH=7.4) using a rubber policeman. Cells were then transferred into centrifugation tubes and centrifuged for 5 min at 400 g. The cell pellet was resuspended in the same buffer and tubes were frozen at −80° C. Cells were thawed and membrane fragments were generated by homogenization using a polytron homogenizer (30 seconds). The membrane fragments were then centrifuged at 3000 g for 20 minutes and resuspended in buffer C (Buffer C: 75 mM Tris, 25 mM MgCl2, 250 mM Saccharose pH 7.4). Aliquots of membrane fragments were stored at −20° C.
Binding assay was performed in a final assay volume of 250 μl. First, 25 μl of test compound, previously diluted in Binding-Buffer (Binding-Buffer: 50 mM Tris-Base, 100 mM NaCl, 1 mM EDTA, 0.1% BSA (protease free), 0.01% NaN3, 10 mM MnCl2, pH 7.0) was placed into each well. After addition of 75 μl Binding-Buffer, 50 μl of the radioligand ^3H-PGD2 (at 2.5 nM (220.000 dpm/well) from ANAWA ART0662) was added to each well. Binding assay was started by addition of 100 μl CRTH2 membrane fragments, reaching a final concentration of 20 μg/well. For non-specific binding, PGD2 was added to the reaction mixture to […] final concentration. This assay mix was incubated for 90 minutes at room temperature and then filtered through a GF/C filter 96-well plate which was pre-soaked for 3 hours in 0.5% polyethyleneimine (PEI). The filter-wells were washed three times with ice cold Binding-Buffer. Then, 40 μl of Microscint-40 (Packard) was added to each well and the retained radioactivity quantified in a Topcount (Packard).

Sequence of hCRTH2 receptor (Q9Y5Y4 whole entry): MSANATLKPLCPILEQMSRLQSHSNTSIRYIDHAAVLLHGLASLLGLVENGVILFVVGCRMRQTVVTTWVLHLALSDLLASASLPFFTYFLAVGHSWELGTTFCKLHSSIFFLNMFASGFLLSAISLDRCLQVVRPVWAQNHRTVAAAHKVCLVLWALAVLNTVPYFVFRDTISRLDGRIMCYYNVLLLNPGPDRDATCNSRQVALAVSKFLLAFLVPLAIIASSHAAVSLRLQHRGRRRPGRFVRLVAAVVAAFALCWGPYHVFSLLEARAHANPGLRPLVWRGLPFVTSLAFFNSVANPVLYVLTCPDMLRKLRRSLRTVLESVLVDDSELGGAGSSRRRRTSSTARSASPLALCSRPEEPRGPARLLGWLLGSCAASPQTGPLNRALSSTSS

## O=C(O)Cc1cccc(-c2ccc(F)c3c2CN(C(=O)OCc2ccccc2)CC3)c1 [Example 24, 8-(3-Carboxymethyl-phenyl)-5-fluoro-3,4-dihydro-1H-isoquinoline-2-carboxylic acid benzyl ester]
  IC50: 69.5 nM

## COc1ccc(CC(=O)O)cc1-c1ccc(S(C)(=O)=O)c2c1CN(C(=O)OCc1ccccc1)CC2 [Example 25, 8-(5-Carboxymethyl-2-methoxy-phenyl)-5-methanesulfonyl-3,4-dihydro-1H-isoquinoline-2-carboxylic acid benzyl ester]
  IC50: 149 nM

## O=C(O)Cc1ccc(OC(F)(F)F)c(-c2ccc(F)c3c2CN(C(=O)[C@@H]2C[C@H]2c2ccccc2)CC3)c1 [Example 26, {3-[5-Fluoro-2-((1R,2R)-2-phenyl-cyclopropanecarbonyl)-1,2,3,4-tetrahydro-isoquinolin-8-yl]-4-trifluoromethoxy-phenyl}-acetic acid]
  IC50: 3.07 nM

## CC(C)Oc1ccc(CC(=O)O)cc1-c1ccc(F)c2c1CN(C(=O)[C@@H]1C[C@H]1c1ccccc1)CC2 [Example 27, {3-[5-Fluoro-2-((1R,2R)-2-phenyl-cyclopropanecarbonyl)-1,2,3,4-tetrahydro-isoquinolin-8-yl]-4-isopropoxy-phenyl}-acetic acid]
  IC50: 12.9 nM

## O=C(O)Cc1ccccc1-c1ccc(F)c2c1CN(C(=O)OCc1ccccc1)CC2 [Example 30, 8-(2-Carboxymethyl-phenyl)-5-fluoro-3,4-dihydro-1H-isoquinoline-2-carboxylic acid benzyl ester]
  IC50: 875 nM

## COc1ccc(CC(=O)O)cc1-c1c(F)ccc2c1CN(C(=O)OCc1ccccc1)CC2 [Example 33, 8-(5-Carboxymethyl-2-methoxy-phenyl)-7-fluoro-3,4-dihydro-1H-isoquinoline-2-carboxylic acid benzyl ester]
  IC50: 113 nM

## COc1ccc(CC(=O)O)cc1-c1c(F)ccc2c1CN(C(=O)[C@@H]1C[C@H]1c1ccccc1)CC2 [Example 35, {3-[7-Fluoro-2-((1R,2R)-2-phenyl-cyclopropanecarbonyl)-1,2,3,4-tetrahydro-isoquinolin-8-yl]-4-methoxy-phenyl}-acetic acid]
  IC50: 3.19 nM

## COc1ccc(CC(=O)O)cc1-c1c(F)cc(F)c2c1CN(C(=O)[C@@H]1C[C@H]1c1ccccc1)CC2 [Example 38, {3-[5,7-Difluoro-2-((1R,2R)-2-phenyl-cyclopropanecarbonyl)-1,2,3,4-tetrahydro-isoquinolin-8-yl]-4-methoxy-phenyl}-acetic acid]
  IC50: 11.2 nM

## O=C(O)Cc1ccc(-c2ccc(F)c3c2CN(C(=O)OCc2ccccc2)CC3)cc1Cl [Example 40, 8-(4-Carboxymethyl-3-chloro-phenyl)-5-fluoro-3,4-dihydro-1H-isoquinoline-2-carboxylic acid benzyl ester]
  IC50: 29.1 nM

## O=C(O)Cc1ccc(-c2ccc(F)c3c2CN(C(=O)OCc2ccccc2)CC3)cc1 [Example 41, 8-(4-Carboxymethyl-phenyl)-5-fluoro-3,4-dihydro-1H-isoquinoline-2-carboxylic acid benzyl ester]
  IC50: 44.9 nM

## COc1ccc(CC(=O)O)cc1-c1ccc(F)c2c1CN(C(=O)COc1ccccc1)CC2 [Example 43, {3-[5-Fluoro-2-(2-phenoxy-acetyl)-1,2,3,4-tetrahydro-isoquinolin-8-yl]-4-methoxy-phenyl}-acetic acid]
  IC50: 30.2 nM

## COc1ccc(CC(=O)O)cc1-c1ccc(F)c2c1CN(C(=O)COc1ccc(F)cc1)CC2 [Example 44, (3-{5-Fluoro-2-[2-(4-fluoro-phenoxy)-acetyl]-1,2,3,4-tetrahydro-isoquinolin-8-yl}-4-methoxy-phenyl)-acetic acid]
  IC50: 59.1 nM

## CCOCC(=O)N1CCc2c(F)ccc(-c3cc(CC(=O)O)ccc3OC)c2C1 [Example 46, {3-[2-(2-Ethoxy-acetyl)-5-fluoro-1,2,3,4-tetrahydro-isoquinolin-8-yl]-4-methoxy-phenyl}-acetic acid]
  IC50: 774 nM

## COc1ccc(CC(=O)O)cc1-c1ccc(F)c2c1CN(C(=O)COC(C)(C)C)CC2 [Example 47, {3-[2-(2-tert-Butoxy-acetyl)-5-fluoro-1,2,3,4-tetrahydro-isoquinolin-8-yl]-4-methoxy-phenyl}-acetic acid]
  IC50: 551 nM

## COc1ccc2onc(CC(=O)N3CCc4c(F)ccc(-c5cc(CC(=O)O)ccc5OC)c4C3)c2c1 [Example 49, (3-{5-Fluoro-2-[2-(5-methoxy-benzo[d]isoxazol-3-yl)-acetyl]-1,2,3,4-tetrahydro-isoquinolin-8-yl}-4-methoxy-phenyl)-acetic acid]
  IC50: 54 nM

## COc1ccc(CC(=O)O)cc1-c1ccc(F)c2c1CN(C(=O)C1C(C)(C)C1(C)C)CC2 [Example 50, {3-[5-Fluoro-2-(2,2,3,3-tetramethyl-cyclopropanecarbonyl)-1,2,3,4-tetrahydro-isoquinolin-8-yl]-4-methoxy-phenyl}-acetic acid]
  IC50: 267 nM

## COc1ccc(CC(=O)O)cc1-c1ccc(F)c2c1CN(C(=O)CCc1cccnc1)CC2 [Example 51, {3-[5-Fluoro-2-(3-pyridin-3-yl-propionyl)-1,2,3,4-tetrahydro-isoquinolin-8-yl]-4-methoxy-phenyl}-acetic acid]
  IC50: 57.1 nM

## COc1ccc(CC(=O)O)cc1-c1ccc(F)c2c1CN(C(=O)C1CC1)CC2 [Example 52, [3-(2-Cyclopropanecarbonyl-5-fluoro-1,2,3,4-tetrahydro-isoquinolin-8-yl)-4-methoxy-phenyl]-acetic acid]
  IC50: 68.9 nM

## COc1ccc(CC(=O)O)cc1-c1ccc(F)c2c1CN(C(=O)CCN1CCCc3ccccc31)CC2 [Example 53, {3-[2-(3-3,4-Dihydro-2H-quinolin-1-yl-propionyl)-5-fluoro-1,2,3,4-tetrahydro-isoquinolin-8-yl]-4-methoxy-phenyl}-acetic acid]
  IC50: 4.49 nM

## COc1ccc(CC(=O)O)cc1-c1ccc(F)c2c1CN(C(=O)CCc1ccccc1C)CC2 [Example 56, {3-[5-Fluoro-2-(3-o-tolyl-propionyl)-1,2,3,4-tetrahydro-isoquinolin-8-yl]-4-methoxy-phenyl}-acetic acid]
  IC50: 42.1 nM

## COc1ccc(CC(=O)O)cc1-c1ccc(F)c2c1CN(C(=O)CCn1cc(C)c3ccccc31)CC2 [Example 57, (3-{5-Fluoro-2-[3-(3-methyl-indol-1-yl)-propionyl]-1,2,3,4-tetrahydro-isoquinolin-8-yl}-4-methoxy-phenyl)-acetic acid]
  IC50: 16.2 nM

## COc1ccc2[nH]cc(CCC(=O)N3CCc4c(F)ccc(-c5cc(CC(=O)O)ccc5OC)c4C3)c2c1 [Example 63, (3-{5-Fluoro-2-[3-(5-methoxy-1H-indol-3-yl)-propionyl]-1,2,3,4-tetrahydro-isoquinolin-8-yl}-4-methoxy-phenyl)-acetic acid]
  IC50: 29.5 nM

## COc1ccc(CC(=O)O)cc1-c1ccc(F)c2c1CN(C(=O)[C@@H]1C[C@H]1c1ccc(Cl)cc1)CC2 [Example 64, (3-{2-[(1R,2R)-2-(4-Chloro-phenyl)-cyclopropanecarbonyl]-5-fluoro-1,2,3,4-tetrahydro-isoquinolin-8-yl}-4-methoxy-phenyl)-acetic acid]
  IC50: 1.12 nM

## COc1ccc(CC(=O)O)cc1-c1ccc(F)c2c1CN(C(=O)[C@@H]1C[C@H]1c1ccccc1F)CC2 [Example 66, (3-{5-Fluoro-2-[(1R,2R)-2-(2-fluoro-phenyl)-cyclopropanecarbonyl]-1,2,3,4-tetrahydro-isoquinolin-8-yl}-4-methoxy-phenyl)-acetic acid]
  IC50: 1.77 nM

## COc1ccc(CC(=O)O)cc1-c1ccc(F)c2c1CN(C(=O)CCn1ncc3ccccc31)CC2 [Example 67, {3-[5-Fluoro-2-(3-indazol-1-yl-propionyl)-1,2,3,4-tetrahydro-isoquinolin-8-yl]-4-methoxy-phenyl}-acetic acid]
  IC50: 21.6 nM

## COc1ccc(CC(=O)O)cc1-c1ccc(Cl)c2c1CN(C(=O)[C@@H]1C[C@H]1c1ccc(Cl)cc1)CC2 [Example 68, (3-{5-Chloro-2-[(1R,2R)-2-(4-chloro-phenyl)-cyclopropanecarbonyl]-1,2,3,4-tetrahydro-isoquinolin-8-yl}-4-methoxy-phenyl)-acetic acid]
  IC50: 3.75 nM

## COc1ccc(CC(=O)O)cc1-c1ccc(Cl)c2c1CN(C(=O)[C@@H]1C[C@H]1c1ccccc1F)CC2 [Example 70, (3-{5-Chloro-2-[(1R,2R)-2-(2-fluoro-phenyl)-cyclopropanecarbonyl]-1,2,3,4-tetrahydro-isoquinolin-8-yl}-4-methoxy-phenyl)-acetic acid]
  IC50: 1.16 nM

## COc1ccc(CC(=O)O)cc1-c1ccc(Cl)c2c1CN(C(=O)CCn1ncc3ccccc31)CC2 [Example 72, {3-[5-Chloro-2-(3-indazol-1-yl-propionyl)-1,2,3,4-tetrahydro-isoquinolin-8-yl]-4-methoxy-phenyl}-acetic acid]
  IC50: 37.8 nM

## COc1ccc(CC(=O)O)cc1-c1ccc(Cl)c2c1CN(C(=O)COCc1ccccc1Cl)CC2 [Example 73, (3-{5-Chloro-2-[2-(2-chloro-benzyloxy)-acetyl]-1,2,3,4-tetrahydro-isoquinolin-8-yl}-4-methoxy-phenyl)-acetic acid]
  IC50: 30.2 nM
